Data as given in article PMC12136037, “Type II kinase inhibitors that target Parkinson’s disease–associated LRRK2” (Science Advances, 2025).
Several values for one entry are separate records, joined by “and”; a condition that tells them apart may be missing. Equal entries are not always repeated.

Target: T1, LRRK2^RCKW (Homo sapiens, UniProt Q5S007)
T1 construct: LRRK2 R1327 to E2527; His6-Z-tag (TEV cleavable) (N, cleaved yes); host or cells: Sf9 insect cells (baculovirus)
T1 sequence (Q5S007 1327-2527): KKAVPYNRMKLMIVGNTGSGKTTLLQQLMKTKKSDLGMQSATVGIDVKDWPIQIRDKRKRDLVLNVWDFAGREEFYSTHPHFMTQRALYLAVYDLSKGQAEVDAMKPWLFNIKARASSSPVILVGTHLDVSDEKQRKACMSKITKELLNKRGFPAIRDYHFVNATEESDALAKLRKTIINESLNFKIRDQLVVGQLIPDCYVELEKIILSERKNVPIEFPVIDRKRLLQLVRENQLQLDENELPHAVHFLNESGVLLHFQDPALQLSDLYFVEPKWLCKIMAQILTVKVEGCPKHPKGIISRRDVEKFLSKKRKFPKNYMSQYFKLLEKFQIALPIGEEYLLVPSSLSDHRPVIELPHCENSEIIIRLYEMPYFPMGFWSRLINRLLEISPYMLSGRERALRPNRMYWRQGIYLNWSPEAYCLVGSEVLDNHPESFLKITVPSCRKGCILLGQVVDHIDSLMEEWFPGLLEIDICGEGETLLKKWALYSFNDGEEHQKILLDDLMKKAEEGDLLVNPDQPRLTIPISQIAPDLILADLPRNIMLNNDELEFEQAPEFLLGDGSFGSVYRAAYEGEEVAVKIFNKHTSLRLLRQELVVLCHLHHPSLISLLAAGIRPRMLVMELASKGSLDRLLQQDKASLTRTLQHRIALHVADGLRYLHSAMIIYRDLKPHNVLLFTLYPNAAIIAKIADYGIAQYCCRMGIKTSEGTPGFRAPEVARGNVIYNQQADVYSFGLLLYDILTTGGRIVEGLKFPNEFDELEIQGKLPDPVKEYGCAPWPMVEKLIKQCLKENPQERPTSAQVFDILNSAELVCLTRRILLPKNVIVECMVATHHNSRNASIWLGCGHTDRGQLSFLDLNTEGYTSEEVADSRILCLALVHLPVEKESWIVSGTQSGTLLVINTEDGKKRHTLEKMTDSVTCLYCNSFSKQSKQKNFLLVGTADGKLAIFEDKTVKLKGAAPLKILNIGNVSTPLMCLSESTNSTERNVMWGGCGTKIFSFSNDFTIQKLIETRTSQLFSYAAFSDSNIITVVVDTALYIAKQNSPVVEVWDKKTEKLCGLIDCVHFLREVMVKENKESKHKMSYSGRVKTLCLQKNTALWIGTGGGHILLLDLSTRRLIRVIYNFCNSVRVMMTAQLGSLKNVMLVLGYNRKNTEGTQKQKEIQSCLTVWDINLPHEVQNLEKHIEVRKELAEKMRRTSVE
Experiment: MS-based activity assay, Rab8a phosphorylation (pT72)
Assay type: biochemical
Details: for % phosphorylation: Rab8a; for % phosphorylation / Normalized: single runs; for LRRK2RCKW activity (% control): mean of n=3; for IC50: mass spectrometry, 1 mM ATP, 4 h, read-out: IC50, LRRK2^RCKW-mediated phosphorylation of Rab8a; for Normalized: normalized % phosphorylation of Rab8a
Procedure: To determine IC50 values for selected inhibitors, activity assay was performed using LRRK2^RCKW and Rab8A substrate (table S4). LRRK2^RCKW (20 nM) was incubated with 5 μM substrate and a concentration series of the respective inhibitor in 20 mM Hepes (pH 7.4), 100 mM NaCl, 0.5 mM TCEP, 0.5% glycerol, 20 μM GDP, and 2.5 mM MgCl2. The reaction was started by adding 1 mM ATP and incubated at room temperature for 4 hours. The phosphorylation reaction was stopped by addition of MS buffer (0.1% formic acid in water). Reaction mix (5 μl) was injected into an Agilent 6230 electrospray ionization time-of-flight mass spectrometer coupled to a 1260 Infinity liquid chromatography unit (flow rate at 0.4 ml/min using a solvent gradient of water to acetonitrile with 0.1% formic acid). Data were acquired using the MassHunter LC/MS Data Acquisition software and analyzed using the BioConfirm vB.08.00 tool (both Agilent Technology, www.agilent.com/en/product/software-informatics/mass-spectrometry-software, RRID: SCR_016657).
Peak intensities of unphosphorylated and phosphorylated Rab8A were quantified, and the relative kinase activity was calculated as a ratio. To determine the IC50, a nonlinear regression with variable slope was fitted to the datapoints with GraphPad Prism (www.graphpad.com/, RRID:SCR_002798). (For step-by-step protocol, see dx.doi.org/10.17504/protocols.io.6qpvr385ovmk/v2.)

[1] = inhibitor 0.21 (0.212), listed as RN277
[2] = inhibitor 0.64 (0.635), listed as RN277
[3] = inhibitor 1.91 (2), listed as RN277
[4] = inhibitor 5.72 (6), listed as RN277
[5] = inhibitor 17.15 (17), listed as RN277
[6] = inhibitor 51.44 (51), listed as RN277
[7] = inhibitor 154.32 (154), listed as RN277
[8] = inhibitor 462.96 (463), listed as RN277
[9] = inhibitor 1388.89 (1389), listed as RN277
[10] = inhibitor 4166.67 (4167), listed as RN277
[11] = inhibitor 12500, listed as RN277
[12] = inhibitor 0.21 (0.212), listed as RN341
[13] = inhibitor 0.64 (0.635), listed as RN341
[14] = inhibitor 1.91 (2), listed as RN341
[15] = inhibitor 5.72 (6), listed as RN341
[16] = inhibitor 17.15 (17), listed as RN341
[17] = inhibitor 51.44 (51), listed as RN341
[18] = inhibitor 154.32 (154), listed as RN341
[19] = inhibitor 462.96 (463), listed as RN341
[20] = inhibitor 1388.89 (1389), listed as RN341
[21] = inhibitor 4166.67 (4167), listed as RN341
[22] = inhibitor 12500, listed as RN341

With Cc1ccc(-n2nc(C(C)(C)C)cc2NC(=O)Nc2cccc(-c3c[nH]c4nc(Cl)nc(N5CCOCC5)c34)c2)cc1 [Compound 30] the “% phosphorylation” value [1] was 60.4% and 59.2% and 60.0%, the “% phosphorylation” value [2] was 61.6% and 60.3% and 62.2% and the “% phosphorylation” value [3] was 60.4% and 59.2%. The “% phosphorylation” value [4] was 61.0% and 59.5% and 59.1%, the “% phosphorylation” value [5] was 52.8% and 50.7% and 48.4% and the “% phosphorylation” value [6] was 34.0% and 33.1% and 33.2%. For the same compound, the “% phosphorylation” value [7] was 18.1% and 19.7% and 20.2%, the “% phosphorylation” value [8] was 8.2% and 8.7% and 10.4% and the “% phosphorylation” value [9] was 5.3% and 5.2% and 5.4%. For the same compound, the “% phosphorylation” value [10] was 4.0% and 5.6%, the “% phosphorylation” value [11] was 4.6% and 3.7% and 4.4% and the “LRRK2RCKW activity (% control)” value (inhibitor 0.64 nM) was 102.03 % control. The “LRRK2RCKW activity (% control)” value (inhibitor 5.72 nM) was 99.57 % control, the “LRRK2RCKW activity (% control)” value (inhibitor 17.15 nM) was 84.23 % control and the “LRRK2RCKW activity (% control)” value (inhibitor 51.44 nM) was 55.63 % control. For the same compound, the “LRRK2RCKW activity (% control)” value (inhibitor 154.32 nM) was 32.20 % control, the “LRRK2RCKW activity (% control)” value (inhibitor 462.96 nM) was 15.20 % control and the “LRRK2RCKW activity (% control)” value (inhibitor 1388.89 nM) was 8.77 % control. For the same compound, the IC50 was 70 nM, the Normalized [1] was 100.1 and 100.0 and 98.5 and the Normalized [2] was 102.0 and 101.9 and 102.2. For the same compound, the Normalized [3] was 99.9 and 100.1 and 99.3, the Normalized [4] was 100.9 and 100.6 and 97.0 and the Normalized [5] was 87.4 and 85.7 and 79.5. For the same compound, the Normalized [6] was 56.4 and 55.8 and 54.6, the Normalized [7] was 29.8 and 32.7 and 34.1 and the Normalized [8] was 13.5 and 14.4 and 17.6. The Normalized [9] was 8.6 and 9.0, the Normalized [10] was 6.6 and 9.5 and the Normalized [11] was 7.5 and 6.1.

In the case of CCSc1nc(NC)c2c(-c3cccc(NC(=O)Nc4cc(C(C)(C)C)nn4-c4ccc(C)cc4)c3)c[nH]c2n1 [Compound 32], the “% phosphorylation” value [12] is reported as 66.5% and 61.3% and 65.1%, the “% phosphorylation” value [13] is reported as 67.4% and 62.2% and 63.1% and the “% phosphorylation” value [14] is reported as 64.1% and 60.1% and 61.1%. The “% phosphorylation” value [15] was 63.8% and 59.4% and 61.3%, the “% phosphorylation” value [16] was 55.5% and 52.5% and 53.7% and the “% phosphorylation” value [17] was 47.7% and 41.6% and 46.5%. For the same compound, the “% phosphorylation” value [18] was 25.7% and 23.0% and 24.6%, the “% phosphorylation” value [19] was 11.0% and 11.8% and 10.3% and the “% phosphorylation” value [20] was 8.0% and 8.8% and 7.9%. The “% phosphorylation” value [21] was 5.7% and 6.7% and 6.1%, the “% phosphorylation” value [22] was 5.9% and 7.2% and 6.3% and the “LRRK2RCKW activity (% control)” value (inhibitor 0.64 nM) was 100.63 % control. The “LRRK2RCKW activity (% control)” value (inhibitor 5.72 nM) was 96.37 % control, the “LRRK2RCKW activity (% control)” value (inhibitor 17.15 nM) was 84.53 % control and the “LRRK2RCKW activity (% control)” value (inhibitor 51.44 nM) was 70.93 % control. For the same compound, the “LRRK2RCKW activity (% control)” value (inhibitor 154.32 nM) was 38.27 % control, the “LRRK2RCKW activity (% control)” value (inhibitor 462.96 nM) was 17.40 % control and the “LRRK2RCKW activity (% control)” value (inhibitor 1388.89 nM) was 12.93 % control. The IC50 was 110 nM, the Normalized [12] was 99.7 and 99.1 and 103.7 and the Normalized [13] was 101.0 and 100.4 and 100.5. For the same compound, the Normalized [14] was 96.1 and 97.0 and 97.3, the Normalized [15] was 95.6 and 96.0 and 97.5 and the Normalized [16] was 83.2 and 84.9 and 85.6. For the same compound, the Normalized [17] was 71.6 and 67.2 and 74.0, the Normalized [18] was 38.5 and 37.1 and 39.2 and the Normalized [19] was 16.6 and 19.1 and 16.5. The Normalized [20] was 12.0 and 14.2 and 12.6, the Normalized [21] was 8.5 and 10.8 and 9.6 and the Normalized [22] was 8.9 and 11.6 and 10.1.
